# Results published in patent publication US20120251448A1, “Compounds for Use in the Detection of Neurodegenerative Diseases” (priority 2011, published 2012).
# System: amyloid-β peptide of Alzheimer's disease
# Assay: binding affinity for amyloid-β peptide (data not shown)
# Conditions: not given
row,SMILES,binding affinity for the amyloid-β peptide
1,Oc1ccc(-c2cnc(-c3ccc(O)c(O)c3)s2)cc1O [SA-64],does not show significant binding affinity

# Molecular target: α-synuclein aggregates (Homo sapiens, UniProt P37840)
# Assay: in vitro competition binding assay with [3H] positive reference compound #1 on α-synuclein aggregates
# Conditions: not given
# Protocol: In order to assess relative binding affinities of the test compounds for aggregated α-synuclein, competition assays were set up with a radiolabeled molecule already known to bind to α-synuclein fibrils and non-radiolabeled test compounds. In order to induce its aggregation, α-synuclein was incubated in phosphate buffered saline (PBS, pH 7.4) at 37° C. for three days with shaking (1,400 rpm). Competitive binding assays were carried out in 12×75 mm borosilicate glass tubes. […] The mixture was incubated for 120 min at 37° C., and the bound and the free radioactivity were separated by vacuum filtration through Whatman GF/B filters using a Brandel M-24R cell harvester, followed by washing with PBS buffer three times. […] IC50 values were determined by a non-linear, least squares regression analysis.
row,Ki,SMILES
1,370 nM,Oc1ccc(-c2nnc(-c3cc(O)c(O)cc3Br)o2)cc1O [SA-55]
2,89 nM,Oc1ccc(-c2cnc(-c3ccc(O)c(O)c3)s2)cc1O [SA-64]

# Same assay, conditions: competition against [3H] positive reference compound #1 (100-200 nM), 120 min at 37° C., PBS; Ki by Cheng-Prusoff from IC50
row,Ki,SMILES
1,659 nM,Oc1ccc(-c2cnc(-c3ccc(O)c(O)c3)o2)cc1O [SA-70]
2,1640 nM,Oc1ccc(-c2nc3cc(O)c(O)cc3o2)cc1O [SA-54]
3,697 nM,Oc1ccc(-c2cn(-c3ccc(O)c(O)c3)nn2)cc1O [SA-68]
4,124 nM,Oc1ccc(-c2nsc(-c3ccc(O)c(O)c3)n2)cc1O [SA-57]
5,466 nM,Oc1ccc(-c2nnc(-c3ccc(O)c(O)c3)o2)cc1O [SA-67]
6,3100 nM,Oc1ccc(-c2cc(-c3ccc(O)c(O)c3)c(-c3ccc(O)c(O)c3)s2)cc1O [SA-61]
